Test results as given in patent US6593335B1, “Potassium channel openers” (Abbott Laboratories, priority 1997, dated 2003).

Experiments:
potassium channels [1] = target: potassium channels (Sus scrofa, UniProt F1SR11); assay: Functional potassium channel opening activity in isolated Landrace pig bladder strips (field-stimulated twitch)
In short: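 Landrace pig bladder strips with the mucosa removed were field-stimulated (0.05 Hz, 0.5 ms, 20 V) in Krebs Ringer bicarbonate containing propranolol, and primed with 80 mM KCl. Cumulative concentration-response curves gave maximal efficacy relative to a reference potassium channel opener, pD2, and a potency index (reference ED50/test ED50) averaged across tissues.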

Male CD rats = assay: In-vivo bladder efficacy protocol (isovolumetric contractions model); parameters: species or system rat
Source text: The utility of compounds of the inyention for the treatment of urinary incontinence, bladder overactivity and bladder instability is illustrated by the ability of compounds of the inyention to affect bladder contractions in-vivo. The following method is illustrative of the in-vivo bladder efficacy of compounds of the inyention. In-vivo bladder efficacy protocol (isovolumetric contractions model) Male CD rats (400-450 g) were anesthetized with urethane (0.6 gikg ip +0.6 g/kg sc). The left femoral vein was cannulated with polyethylene (PE-50) tubing for test compound administration. […] The bladder was emptied via this catheter and additionally by applying slight manual pressure on the lower abdomen. The urinary catheter was connected using a Y-tube connector to both a pressure transducer and a syringe pump. The urethra was then ligated using 4-0 silk suture and the bladder was slowly filled using a constant infusion of room temperature saline at the rate of 0.1 ml/min until spontaneous rhythmic contractions were evident (1.0 -1.3 ml). […] Then three doses of a test compound were administered cumulatively iv at 20 minute intervals. […] Area under the curve (AUC) of the bladder contractions was determined from the respective waveforms using a Modular Instruments, Inc. computerized data acquisition system and averaged over the last ten minutes of each twenty minute period.

potassium channels [2] = target: potassium channels (Homo sapiens, UniProt O60706); assay: Functional potassium channel opening activity in isolated human bladder strips (25 mM KCl contracted); settings: control agonist, 25 mM KCl contracted
Procedure: Human bladders were obtained from women greater than 45 years old. The human tissue was obtained from the Anatomic Gift Foundation, Phoenix AZ. Human tissue was received via overnight delivery on wet ice placed into Krebs Ringer bicarbonate solution (composition, mM: NaCl, 120; NaHCO3, 20; dextrose, 11; KCl, 4.7; 20 CaC′2, 2.5; MgSO4, 1.5; KH2PO4, 1.2; K2EDTA, 0.01, equilibrated with 5% C02/95% 02 pH 7.4 at 37 ° C.). Propranolol (0.004 mM) was included in all of the assays to block […]. The trigonal and dome portions were discarded. Strips 3-5 mm wide and 20 mm long were prepared from the remaining tissue cut in a circular fashion. The mucosal layer was removed. For the human detrusor strips the tissues were contracted 25 with 25 mM KCl which produced a steady state tension of approximately 400 centigrams. […]
After a 60 minute rinsing period, a concentration response curve (cumulative) was 30 generated for the test agonist in the same fashion as that used for the control agonist P1075. The maxximal efficacies of the compounds (expressed as % relative to P1075) are reported. […] Agonist potencies were also expressed as an index relative to PI1075. The index was calculated by dividing the ED50 for P1075 by the ED50 for the test agonist in a given tissue. […]

Chain of potassium channels (Homo sapiens, UniProt O60706) (O60706 whole entry): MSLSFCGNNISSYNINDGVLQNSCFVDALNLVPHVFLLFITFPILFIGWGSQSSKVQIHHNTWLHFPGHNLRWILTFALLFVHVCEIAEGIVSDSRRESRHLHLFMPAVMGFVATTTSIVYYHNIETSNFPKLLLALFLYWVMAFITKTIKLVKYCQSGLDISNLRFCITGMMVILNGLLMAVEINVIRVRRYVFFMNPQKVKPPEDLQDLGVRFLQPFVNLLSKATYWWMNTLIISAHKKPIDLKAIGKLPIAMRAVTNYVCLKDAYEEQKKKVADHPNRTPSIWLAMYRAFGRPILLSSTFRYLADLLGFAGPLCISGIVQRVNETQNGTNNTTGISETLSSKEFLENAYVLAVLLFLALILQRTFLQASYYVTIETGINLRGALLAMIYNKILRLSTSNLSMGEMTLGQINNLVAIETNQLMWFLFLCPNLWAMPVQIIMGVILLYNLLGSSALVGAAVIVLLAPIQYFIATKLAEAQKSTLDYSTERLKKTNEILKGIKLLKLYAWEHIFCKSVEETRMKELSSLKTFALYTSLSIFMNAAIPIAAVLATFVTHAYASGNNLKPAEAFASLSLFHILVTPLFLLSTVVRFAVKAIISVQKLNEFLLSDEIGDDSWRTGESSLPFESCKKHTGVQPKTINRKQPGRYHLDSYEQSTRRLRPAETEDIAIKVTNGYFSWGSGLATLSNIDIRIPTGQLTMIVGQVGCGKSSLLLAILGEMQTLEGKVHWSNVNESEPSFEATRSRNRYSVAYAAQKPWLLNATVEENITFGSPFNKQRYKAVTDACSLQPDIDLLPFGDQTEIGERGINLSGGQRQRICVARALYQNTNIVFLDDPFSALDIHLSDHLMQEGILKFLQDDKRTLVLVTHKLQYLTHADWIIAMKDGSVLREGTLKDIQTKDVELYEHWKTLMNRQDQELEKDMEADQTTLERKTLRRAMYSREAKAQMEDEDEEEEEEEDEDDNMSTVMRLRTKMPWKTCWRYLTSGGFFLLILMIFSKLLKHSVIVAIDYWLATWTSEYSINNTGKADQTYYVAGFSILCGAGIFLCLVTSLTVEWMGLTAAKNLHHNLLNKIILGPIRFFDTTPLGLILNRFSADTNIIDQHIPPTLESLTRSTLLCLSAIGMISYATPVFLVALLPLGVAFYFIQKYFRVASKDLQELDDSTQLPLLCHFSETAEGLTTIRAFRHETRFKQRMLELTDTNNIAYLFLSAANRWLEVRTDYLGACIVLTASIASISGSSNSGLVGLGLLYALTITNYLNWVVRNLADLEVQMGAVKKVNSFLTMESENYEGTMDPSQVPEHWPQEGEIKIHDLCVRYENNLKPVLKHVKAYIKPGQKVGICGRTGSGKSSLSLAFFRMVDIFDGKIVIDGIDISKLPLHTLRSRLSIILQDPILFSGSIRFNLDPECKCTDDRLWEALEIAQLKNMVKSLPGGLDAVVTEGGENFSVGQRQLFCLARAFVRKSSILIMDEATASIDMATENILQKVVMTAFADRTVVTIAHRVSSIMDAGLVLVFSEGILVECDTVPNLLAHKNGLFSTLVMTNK
Chain of potassium channels (Homo sapiens, UniProt O60706) (Q14654 whole entry, further chain): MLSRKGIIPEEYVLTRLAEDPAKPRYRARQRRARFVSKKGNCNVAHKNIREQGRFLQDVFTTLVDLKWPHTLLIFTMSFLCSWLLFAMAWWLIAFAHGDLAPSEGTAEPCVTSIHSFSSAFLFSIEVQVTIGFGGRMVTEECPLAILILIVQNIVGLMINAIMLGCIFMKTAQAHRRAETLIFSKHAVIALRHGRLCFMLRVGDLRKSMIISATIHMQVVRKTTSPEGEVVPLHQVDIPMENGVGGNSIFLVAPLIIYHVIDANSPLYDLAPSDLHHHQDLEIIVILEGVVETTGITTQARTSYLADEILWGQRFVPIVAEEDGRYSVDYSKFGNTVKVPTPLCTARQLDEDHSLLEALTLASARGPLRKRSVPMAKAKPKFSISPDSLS

SMILES	Landrace Pig Bladder Index (potassium channels [1]; ED50 for P1075 divided by ED50 for the test agonist, averaged over tissues)	Landrace Pig Bladder Efficacy (% P1075) (potassium channels [1]; maximal efficacy relative to P1075, field stimulation 0.05Hz, 0.5 milli-seconds at 20 volts)	Landrace Pig Bladder pD2 (potassium channels [1]; negative logarithm of ED50)	reduction in bladder AUC (Male CD rats; iv, dose range of 0.01, 0.1)	AUC ED30 (dose required to reduce the area under the curve of the bladder contractions by 30% relative to control) (Male CD rats; urethane-anesthetized male CD rats, iv cumulative dosing)	relaxation of human detrusor strips (potassium channels [2])	effect on stimulated twitch of pig bladder strips (potassium channels [1]; control agonist, concentration range of 10-9 to 10-′M, 1/2 log increments)
O=C1CCC2=C1C(c1ccc(F)c(Br)c1)C1=C(CCS1(=O)=O)N2 (single isomer, unassigned; (+)) [Example 87]	0.90	100 % P1075	7.5	dose dependent reduction in bladder AUC	0.06 µmol/kg	–	–
CCC(C)(C)N=C(NC#N)Nc1cccnc1 [Example P1075, reference compound]	–	–	–	–	–	complete relaxation	completely eliminated the stimulated twitch
